Molecular target: T1, HTR6 (Homo sapiens, UniProt P50406)
T1 construct: purchased Promega (in-house HiBiT-GPCR construct library, NanoBRET)
Assay: NanoBRET screen HiBiT-HTR6 in HEK293
Format: binding
Procedure: Each tracer candidate was screened across the entire library of HiBiT-GPCR constructs using NanoBRET as the detection modality. As depicted in Figure 4A, the specificity of interactions was evaluated through decrease in BRET due to competitive displacement of a bound tracer by excess parental compound. Each tracer was analyzed for binding to each HiBiT-GPCR fusion in the absence and in the presence of competing parental compound. Briefly, HEK293 cells were transfected with HiBiT-GPCR constructs diluted into promoterless DNA to reduce expression and maximize translocation to the cell surface. Each tracer candidate was then screened at concentrations of 1 μM and 0.1 μM across cells expressing these fusions. Cells were treated for 1.5 h with tracer either alone or in the presence of 20 μM competing parental compound (i.e., control). BRET was measured upon addition of purified LgBiT and subsequent complementation with HiBiT genetically fused to a GPCR. The specificity of interactions was assessed through a decrease in BRET signal due to competitive displacement of the bound tracer. To further gauge the robustness of these interactions, the fold response over the control (i.e., BRETtracer/BRETcontrol) was calculated. We chose a 1.5-fold response, which translates to ≥7-fold signal over noise as the minimal threshold required to score an interaction as positive.
HiBiT-GPCR DNA constructs were diluted in 10 mM Tris pH 8 to a final concentration of 0.01 μg/μL, arrayed in 96-well plates and stored at −20 °C. For transfection, HEK293 cells were suspended in Opti-MEM (without phenol red) supplemented with 2% fetal bovine serum (Seradigm) and 100 units/mL penicillin–streptomycin (Gibco) at a final concentration of 220,000 cells/mL and dispensed into white 96-well plates at 90 μL/well. Subsequent transfections and screens were carried using an Agilent Bravo Automated Liquid Handling Platform. First, the 96-well HiBiT DNA arrays were diluted 25-fold in Opti-MEM (without serum or phenol red) to a final concentration of 0.0004 μg/μL and 20 μL of the diluted DNAs were transferred into new 96-well plates. Next, promoterless carrier DNA (1 μg/μL) was diluted 25-fold (0.04 μg/μL) and then dispensed into the diluted arrays at 20 μL/well. Following brief mixing, Viafect transfection reagent (Promega) diluted 16-fold into Opti-MEM was dispensed into the plates at 40 μL/well. After mixing by pipetting, plates were incubated for 10 min on the pipetting station deck. The DNA-transfection reagent complexes were then added to plates containing cells. To facilitate the screen, 10 μL of DNA-transfection reagent complexes were added in duplicates to the top 4 and bottom 4 rows, resulting in two identical 48-well arrays per plate. Plates with transfected cells were incubated for 18–20 h at 37 °C/5% CO2. A screen of each tracer across the entire library using two different concentrations requires duplicate plates of transfected cells. Depending on the number of tracers being screened, transfections can be scaled up using the same ratios. The next day, for each tracer, four 20× screening solutions in tracer dilution buffer (Promega) were prepared: two duplicates at final concentration of 20 μM and two duplicates at a final concentration of 2 μM. […] The four resulting solutions were diluted 4-fold in Opti-MEM without serum or phenol red to generate 5× solutions (5 µM and 0.5 µM tracer +/− 100 μM competing compound). To screen the library, a BioTek MultiFlo FX liquid dispenser was used to dispense 22.5 µL of tracer solution to the top 4 rows and 22.5 µL tracer + competing compound solution to the 4 bottom rows. Plates were briefly mixed on an orbital shaker and incubated for 1.5 h at room temperature. […] Plates were briefly mixed on an orbital shaker and incubated for 15 min to allow complementation.

T1 sequence (P50406 whole entry): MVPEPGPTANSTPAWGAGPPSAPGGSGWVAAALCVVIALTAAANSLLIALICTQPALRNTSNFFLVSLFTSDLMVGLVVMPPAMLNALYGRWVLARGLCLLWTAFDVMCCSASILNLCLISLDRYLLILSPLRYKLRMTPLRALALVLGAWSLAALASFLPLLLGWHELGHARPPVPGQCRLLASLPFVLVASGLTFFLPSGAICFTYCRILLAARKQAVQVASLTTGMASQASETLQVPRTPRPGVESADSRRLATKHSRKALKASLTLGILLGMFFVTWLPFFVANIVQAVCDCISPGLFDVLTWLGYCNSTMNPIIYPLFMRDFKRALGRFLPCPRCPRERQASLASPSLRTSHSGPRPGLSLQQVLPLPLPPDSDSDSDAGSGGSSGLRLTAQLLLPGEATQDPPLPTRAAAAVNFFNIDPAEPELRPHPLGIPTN

CCOC(=O)c1cc(C#N)c(N2CCC(C(=O)NS(=O)(=O)Cc3ccccc3/C=C/C(=O)NCCNC(=O)CCc3ccc4n3[B-](F)(F)[N+]3=C(c5ccc[nH]5)C=CC3=C4)CC2)nc1C [AZD1283-1-NB590]
NanoBRET Fold Response (HTR6, 0.1μM): 1.05
NanoBRET Fold Response (HTR6, 1μM): 1.07

N#CN/C(=N\CCNC(=O)c1ccc(N)cc1)NCCCOc1cccc(CN2CCCCC2)c1 [Aminopotentidine (unmodified)]
NanoBRET Fold Response (HTR6, other tracers/Aminopotentidine (unmodified), 0.1μM): 1.03
NanoBRET Fold Response (HTR6, other tracers/Aminopotentidine (unmodified), 1μM): 1.38

N#CN=C(NCCCOc1cccc(CN2CCCCC2)c1)NCCNC(=O)CCOCCOCCOCCOCCNC(=O)CCc1ccc2n1[B-](F)(F)[N+]1=C(c3ccc[nH]3)C=CC1=C2 [Aminopotentidine-2-NB590]
NanoBRET Fold Response (HTR6, tracer 0.1μM): 0.99
NanoBRET Fold Response (HTR6, tracer 1μM): 1.03

CN(C)CCC=C1c2ccccc2CCc2ccc(C(=O)NCCNC(=O)CCOCCOCCOCCOCCNC(=O)CCc3ccc4n3[B-](F)(F)[N+]3=C(c5ccc[nH]5)C=CC3=C4)cc21 [Amitriptyline-a-2-NB590]
NanoBRET Fold Response (tracer at 0.1μM): 0.98
NanoBRET Fold Response (tracer at 1μM): 0.97

CN(C)CCC=C1c2ccccc2CCc2ccc(C(=O)NCCNC(=O)CCOCCOCCOCCOCCNC(=O)CCc3ccc4n3[B-](F)(F)[N+]3=C(c5ccc[nH]5)C=CC3=C4)cc21 [Amitriptyline-b-2-NB590]
NanoBRET Fold Response (tracer at 0.1μM, listed as amitriptyline-b-2-NB590): 1.11
NanoBRET Fold Response (tracer at 1μM, listed as amitriptyline-b-2-NB590): 1.11

CN(CCC=C1c2ccccc2CCc2ccccc21)C(=O)CCOCCOCCOCCOCCNC(=O)CCc1ccc2n1[B-](F)(F)[N+]1=C(c3ccc[nH]3)C=CC1=C2 [Amitriptyline-e-2-NB590]
NanoBRET Fold Response (tracer at 1μM): 1.01

COc1ccc2c(n1)c(CCNC(C)=O)cn2CCNC(=O)CCc1ccc2n1[B-](F)(F)[N+]1=C(c3ccc[nH]3)C=CC1=C2 [Azamelatonin-1-NB590]
NanoBRET Fold Response (0.1μM tracer): 0.87
NanoBRET Fold Response (1μM tracer): 0.87

COc1ccc2[nH]c(-c3ccc(CNC(=O)CCOCCOCCOCCOCCNC(=O)CCc4ccc5n4[B-](F)(F)[N+]4=C(c6ccc[nH]6)C=CC4=C5)cc3)c(CCNC(C)=O)c2n1 [AzomelatoninICO9-2-NB590]
NanoBRET Fold Response (0.1μM tracer): 0.97
NanoBRET Fold Response (1μM tracer): 0.95

O=C(CCOCCOCCOCCOCCNC(=O)CCc1ccc2n1[B-](F)(F)[N+]1=C(c3ccc[nH]3)C=CC1=C2)NCCCN1CCN(C2=Nc3cc(Cl)ccc3Nc3ccccc32)CC1 [Clozapine-a-2-NB590]
NanoBRET Fold Response (HTR6, 0.1μM tracer): 1.49
NanoBRET Fold Response (HTR6, 1μM tracer): 2.05

O=C(CCOCCOCCOCCOCCNC(=O)CCc1ccc2n1[B-](F)(F)[N+]1=C(c3ccc[nH]3)C=CC1=C2)NCCCN1CCN(C2=Nc3ccccc3Oc3ccc(Cl)cc32)CC1 [Loxapine-a-2-NB590]
NanoBRET Fold Response (HTR6, tracer 0.1μM): 1.04
NanoBRET Fold Response (HTR6, tracer 1μM): 1.21

COc1ccccc1N1CCN(CCCCN2C(=O)c3ccc(CNC(=O)CCOCCOCCOCCOCCNC(=O)CCc4ccc5n4[B-](F)(F)[N+]4=C(c6ccc[nH]6)C=CC4=C5)cc3C2=O)CC1 [NAN-190-2-NB590]
NanoBRET Fold Response (HTR6, tracer 0.1μM): 0.99
NanoBRET Fold Response (HTR6, tracer 1μM): 1.04

COc1ccccc1N1CCN(CCCCN2C(=O)c3ccc(CNC(=O)CCOCCNC(=O)c4ccc(CNC(=O)CCc5ccc6n5[B-](F)(F)[N+]5=C(c7ccc[nH]7)C=CC5=C6)cc4)cc3C2=O)CC1 [NAN-190-3-NB590]
NanoBRET Fold Response (HTR6, tracer 0.1μM): 0.94
NanoBRET Fold Response (HTR6, tracer 1μM): 1.19

O=C(CCc1ccc2n1[B-](F)(F)[N+]1=C(c3ccc[nH]3)C=CC1=C2)NCc1ccc(C(=O)NCCOCCC(=O)N[C@@H]2CC[C@@]3(O)[C@H]4Cc5ccc(O)c6c5[C@@]3(CCN4CC3CC3)[C@H]2O6)cc1 [Naltrexone-3-NB590]
NanoBRET Fold Response (HTR6, tracer 0.1μM): 0.77
NanoBRET Fold Response (HTR6, tracer 1μM): 0.95

Cc1cc2c(s1)Nc1ccccc1N=C2N1CCN(CCCNC(=O)CCOCCOCCOCCOCCNC(=O)CCc2ccc3n2[B-](F)(F)[N+]2=C(c4ccc[nH]4)C=CC2=C3)CC1 [Olanzapine-a-2-NB590]
NanoBRET Fold Response (HTR6, tracer 0.1μM): 1.09
NanoBRET Fold Response (HTR6, tracer 1μM): 1.15

O=C(CCc1ccc2n1[B-](F)(F)[N+]1=C(c3ccc[nH]3)C=CC1=C2)NCc1ccc(C(=O)NCCOCCOCCNCC(O)COc2cccc3ccccc23)cc1 (stereo not drawn) [Propranolol-3-NB590]
NanoBRET Fold Response (HTR6, 0.1μM): 1.10
NanoBRET Fold Response (HTR6, 1μM): 1.14

O=C(CCc1ccc2n1[B-](F)(F)[N+]1=C(c3ccc[nH]3)C=CC1=C2)NCCOCCOCCNC(=O)OCCOCCN1CCN(C2=Nc3ccccc3Sc3ccccc32)CC1 [Quetiapine-a-2-NB590]
NanoBRET Fold Response (HTR6, tracer 0.1μM): 0.90
NanoBRET Fold Response (HTR6, tracer 1μM): 0.98

Cc1nc2n(c(=O)c1CCN1CCC(c3noc4cc(F)ccc34)CC1)CCCC2OC(=O)NCCOCCOCCOCCOCCNC(=O)CCc1ccc2n1[B-](F)(F)[N+]1=C(c3ccc[nH]3)C=CC1=C2 (stereo not drawn) [Risperidone-2-NB590]
NanoBRET Fold Response (HTR6, tracer 0.1μM): 1.00
NanoBRET Fold Response (HTR6, tracer 1μM): 1.34

CC(C)N(CC[C@H](c1ccccc1)c1cc(CCNC(=O)CCOCCOCCOCCOCCNC(=O)CCc2ccc3n2[B-](F)(F)[N+]2=C(c4ccc[nH]4)C=CC2=C3)ccc1O)C(C)C [Tolterodine-2-NB590]
NanoBRET Fold Response (HTR6, tracer 0.1μM): 0.89
NanoBRET Fold Response (HTR6, tracer 1μM): 0.96

CC(C)N(CC[C@H](c1ccccc1)c1cc(CCNC(=O)c2ccc(CNC(=O)CCc3ccc4n3[B-](F)(F)[N+]3=C(c5ccc[nH]5)C=CC3=C4)cc2)ccc1O)C(C)C [Tolterodine-BZ-NB590]
NanoBRET Fold Response (HTR6, tracer 0.1μM): 0.96
NanoBRET Fold Response (HTR6, tracer 1μM): 1.05

CCCn1c(=O)c2[nH]c(-c3ccc(OCC(=O)NCCNC(=O)CCOCCNC(=O)c4ccc(CNC(=O)CCc5ccc6n5[B-](F)(F)[N+]5=C(c7ccc[nH]7)C=CC5=C6)cc4)cc3)nc2n(CCC)c1=O [XAC-3-NB590]
NanoBRET Fold Response (HTR6, tracer 0.1μM): 0.97
NanoBRET Fold Response (HTR6, tracer 1μM): 0.93

— PMC8151276, “An Integrated Approach toward NanoBRET Tracers for Analysis of GPCR Ligand Engagement” (Molecules, 2021)
